In series [1] the target is Acetylcholinesterase (Electrophorus electricus, UniProt O42275).
The target of series [2] is T1, Neuronal acetylcholine receptor; alpha4/beta2 (Homo sapiens, UniProt P17787+P43681). Put plainly: Potency index, ratio of nicotine I-max to compound I-max for human brain alpha4beta2 nAChR expressed in CHO cells. The series is classed as cell-based.
For series [3], the target named is T1, Neuronal acetylcholine receptor; alpha4/beta2. Briefly: Potency index, ratio of nicotine EC50 to compound EC50 for human brain alpha4beta2 nAChR expressed in CHO cells. The series is classed as cell-based.
Series [4] has the same target. Put plainly: Agonist activity at human brain alpha4beta2 nAChR expressed in CHO cells assessed as maximal receptor response by patch clamp electrophysiological assay relative to control. The class given is cell-based. In general terms: Patch clamp records ionic current or voltage across a cell membrane.
For series [5] the target is unchanged.
Description: Agonist activity at human brain alpha4beta2 nAChR expressed in CHO cells by patch clamp electrophysiological assay
The species entered for series [6] is Rattus norvegicus. Briefly: Displacement of [3H]-Cytisine from rat cerebral cortex nAChR at 10 uM by radioligand binding assay relative to control. The following applies: filed as antagonist. For orientation: Displacement assays read how much labelled ligand stays bound in the presence of the test substance.
The target of series [7] is T2, Muscarinic acetylcholine receptor M1 (Rattus norvegicus) (UniProt P08482).
T2 sequence (whole entry): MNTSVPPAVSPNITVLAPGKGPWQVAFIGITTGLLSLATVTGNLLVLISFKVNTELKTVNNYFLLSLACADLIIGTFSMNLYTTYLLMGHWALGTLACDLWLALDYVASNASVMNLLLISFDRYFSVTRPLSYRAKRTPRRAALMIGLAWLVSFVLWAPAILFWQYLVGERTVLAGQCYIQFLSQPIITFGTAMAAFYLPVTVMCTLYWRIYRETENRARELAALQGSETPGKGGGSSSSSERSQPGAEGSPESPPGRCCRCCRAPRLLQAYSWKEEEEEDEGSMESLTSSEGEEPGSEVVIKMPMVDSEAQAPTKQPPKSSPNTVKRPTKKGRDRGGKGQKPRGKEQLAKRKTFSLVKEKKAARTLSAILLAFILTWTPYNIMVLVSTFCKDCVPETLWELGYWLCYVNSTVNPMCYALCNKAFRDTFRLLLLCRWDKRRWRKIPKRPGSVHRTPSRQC
Briefly: Displacement of [3H]-Pirenzepine from rat cerebral cortex Muscarinic M1 receptor at 10 uM by radioligand binding assay relative to control. To be noted: filed as antagonist.

For series [8], the system named is Torpedo. Put plainly: Agonist activity at Torpedo alpha1beta1deltagamma nACHR. To be noted: filed as agonist.
In series [9] the target is Neuronal acetylcholine receptor; alpha3/beta4 (Homo sapiens) (UniProt P30926+P32297). Briefly: Agonist activity at human alpha3beta4 nAChR expressed in mouse/rat hybrid F11 cells assessed as increase in rubidium-86 efflux. The class given is cell-based. The following applies: filed as agonist.
The target of series [10] is T1, Neuronal acetylcholine receptor; alpha4/beta2. Briefly: Agonist activity at human alpha4beta2 nAChR expressed in human K177 cell membrane assessed as increase in 86-rubidium efflux incubated for 5 mins by gamma counting method. The class given is cell membranes. To be noted: K177cell line, filed as agonist.
The target of series [11] is T2, Muscarinic acetylcholine receptor M1 (Rattus norvegicus). To be noted: filed as antagonist, time 40.0 min.
Series [12] shares this target. The following applies: filed as antagonist, time 60.0 min.
The target of series [13] is Neuronal acetylcholine receptor subunit alpha-7 (Homo sapiens, UniProt P36544). The following applies: filed as agonist.
Description: Agonist activity at human alpha7 nAChR (unknown origin)
Series [14] concerns PC-12. Briefly: Induction of neurite outgrowth in rat PC-12 cells at 3.3 uM incubated for 24 hrs by phase contrast microscopic analysis relative to control. The series is classed as functional.
Series [15] deals with PC-12. Briefly: Induction of neurite outgrowth in rat PC-12 cells at 10 uM incubated for 24 hrs by phase contrast microscopic analysis relative to control. The class given is functional.
The subject of series [16] is PC-12. Briefly: Induction of neurite outgrowth in rat PC-12 cells at 33 uM incubated for 24 hrs by phase contrast microscopic analysis relative to control. The class given is functional.
The target of series [17] is T3, Neuronal acetylcholine receptor subunit alpha-7 (Rattus norvegicus, UniProt Q05941).
Description: Displacement of [3H]MLA from rat alpha7 nAChR by liquid scintillation counting
The target of series [18] is Neuronal acetylcholine receptor; alpha4/beta2 (Rattus norvegicus, UniProt P09483+P12390).
Series [19] can be described thus: Toxicity in iv dosed Swiss-Webster mouse by up-and-down method. The class given is organism-based. The following applies: in vivo.
The target in series [20] is T3, Neuronal acetylcholine receptor subunit alpha-7. Put plainly: Displacement of 125I-alpha-bungarotoxin from rat brain alpha7 nAChR by radioligand binding assay.
Series [21] has the same target. Briefly: Agonist activity at rat brain alpha7 nAChR.
Series [22] addresses T1, Neuronal acetylcholine receptor; alpha4/beta2. Put plainly: Potency index, ratio of nicotine Ki to test compound Ki for Displacement of [3H]cytisine from human alpha4beta2 nAChR by Cheng-Prusoff equation analysis. The series is classed as protein-complex assay.
Series [23] has the same target. Put plainly: Potency index, ratio of nicotine IC50 to test compound IC50 for Displacement of [3H]cytisine from human alpha4beta2 nAChR by radioligand competition analysis. The class given is protein-complex assay.
Series [24] has the same target. The source holds these as a separate data set.
The target is the same in series [25]. This is another data set of the same source.
Series [26] is filed under the species Cavia porcellus. Put plainly: Inhibition of voltage-dependent calcium channel mediated calcium influx in guinea-pig ileum assessed as Cacl2 induced maximal smooth muscle contraction at 490 uM incubated for 15 mins relative to control. The class given is tissue-based.
For series [27], the species on record is Cavia porcellus. Put plainly: Inhibition of voltage-dependent calcium channel mediated calcium influx in guinea-pig ileum assessed as Cacl2 induced maximal smooth muscle contraction at 120 uM incubated for 15 mins relative to control. The class given is tissue-based.

Usually IC50 stands for the midpoint of a concentration-inhibition curve. Higher therefore signals weaker potency. The EC50 is the midpoint of the concentration-response curve. The low end stands for a more potent agent, the high end for a less potent agent. In general, inhibition refers to the share of the control response that was lost under treatment. As a reminder, the Ki is the equilibrium dissociation constant of an inhibitor or competing ligand from its target. A low value points to tighter binding. What is called LD50 is the dose at which mortality reaches 50%. Low values mean a more toxic substance, high ones a less toxic substance.

T3 sequence (Q05941 whole entry): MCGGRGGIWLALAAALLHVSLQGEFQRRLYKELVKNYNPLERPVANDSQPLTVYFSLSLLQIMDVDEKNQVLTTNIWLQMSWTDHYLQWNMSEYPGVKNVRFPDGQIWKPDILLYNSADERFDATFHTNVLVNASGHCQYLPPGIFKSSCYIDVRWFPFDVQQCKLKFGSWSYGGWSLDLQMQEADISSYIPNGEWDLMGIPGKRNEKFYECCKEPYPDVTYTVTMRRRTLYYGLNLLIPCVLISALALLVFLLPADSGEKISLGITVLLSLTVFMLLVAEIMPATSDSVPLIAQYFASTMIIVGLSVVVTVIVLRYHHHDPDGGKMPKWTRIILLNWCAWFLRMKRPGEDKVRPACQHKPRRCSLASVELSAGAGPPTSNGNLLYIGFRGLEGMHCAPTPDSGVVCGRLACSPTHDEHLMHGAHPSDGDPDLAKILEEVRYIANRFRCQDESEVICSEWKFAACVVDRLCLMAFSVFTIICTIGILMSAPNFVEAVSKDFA
T1 sequence (P17787 whole entry): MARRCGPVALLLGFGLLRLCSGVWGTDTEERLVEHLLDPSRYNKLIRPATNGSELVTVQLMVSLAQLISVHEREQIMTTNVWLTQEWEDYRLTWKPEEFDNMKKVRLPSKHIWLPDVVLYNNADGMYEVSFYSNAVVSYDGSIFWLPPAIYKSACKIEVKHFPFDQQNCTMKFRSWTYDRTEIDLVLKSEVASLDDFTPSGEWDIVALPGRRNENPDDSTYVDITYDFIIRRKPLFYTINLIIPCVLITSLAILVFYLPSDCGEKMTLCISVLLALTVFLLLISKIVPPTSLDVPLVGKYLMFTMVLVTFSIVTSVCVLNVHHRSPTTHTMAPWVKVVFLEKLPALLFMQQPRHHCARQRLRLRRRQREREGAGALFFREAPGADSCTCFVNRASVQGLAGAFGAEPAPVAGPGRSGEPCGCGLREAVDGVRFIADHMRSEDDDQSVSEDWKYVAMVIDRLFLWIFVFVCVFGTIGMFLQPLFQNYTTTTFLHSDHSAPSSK
T1 sequence (P43681 whole entry): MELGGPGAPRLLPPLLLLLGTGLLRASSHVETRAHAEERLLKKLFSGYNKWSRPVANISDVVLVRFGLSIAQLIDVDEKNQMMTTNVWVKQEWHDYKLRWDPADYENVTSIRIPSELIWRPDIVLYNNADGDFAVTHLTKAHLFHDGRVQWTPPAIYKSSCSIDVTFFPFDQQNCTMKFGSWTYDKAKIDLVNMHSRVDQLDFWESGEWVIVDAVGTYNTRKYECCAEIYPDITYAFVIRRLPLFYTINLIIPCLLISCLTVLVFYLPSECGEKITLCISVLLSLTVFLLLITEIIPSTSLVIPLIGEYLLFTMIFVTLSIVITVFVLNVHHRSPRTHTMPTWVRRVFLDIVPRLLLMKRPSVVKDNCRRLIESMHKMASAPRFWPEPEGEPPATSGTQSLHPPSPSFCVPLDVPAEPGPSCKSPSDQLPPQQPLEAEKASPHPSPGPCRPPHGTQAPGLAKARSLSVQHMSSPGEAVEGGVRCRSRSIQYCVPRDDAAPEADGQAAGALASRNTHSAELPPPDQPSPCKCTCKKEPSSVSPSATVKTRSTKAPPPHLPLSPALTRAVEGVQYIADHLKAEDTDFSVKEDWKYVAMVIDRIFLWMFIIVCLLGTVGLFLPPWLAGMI
Neuronal acetylcholine receptor subunit alpha-7 (Homo sapiens, UniProt P36544), sequence (P36544 whole entry): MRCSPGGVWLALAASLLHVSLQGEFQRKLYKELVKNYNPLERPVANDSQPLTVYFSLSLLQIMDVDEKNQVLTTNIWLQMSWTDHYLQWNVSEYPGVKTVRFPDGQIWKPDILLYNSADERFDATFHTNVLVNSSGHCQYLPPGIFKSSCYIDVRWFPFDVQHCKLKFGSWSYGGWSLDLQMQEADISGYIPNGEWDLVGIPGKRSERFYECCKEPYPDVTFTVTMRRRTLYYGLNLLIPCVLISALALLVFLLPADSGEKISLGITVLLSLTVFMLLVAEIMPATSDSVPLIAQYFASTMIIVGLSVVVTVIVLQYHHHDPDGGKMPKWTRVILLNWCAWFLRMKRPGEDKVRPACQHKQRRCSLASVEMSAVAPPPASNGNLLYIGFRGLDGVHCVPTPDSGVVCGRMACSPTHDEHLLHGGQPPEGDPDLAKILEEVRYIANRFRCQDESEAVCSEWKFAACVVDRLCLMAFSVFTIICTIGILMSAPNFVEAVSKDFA
Neuronal acetylcholine receptor; alpha4/beta2 (Rattus norvegicus, UniProt P09483+P12390), sequence (P09483 whole entry): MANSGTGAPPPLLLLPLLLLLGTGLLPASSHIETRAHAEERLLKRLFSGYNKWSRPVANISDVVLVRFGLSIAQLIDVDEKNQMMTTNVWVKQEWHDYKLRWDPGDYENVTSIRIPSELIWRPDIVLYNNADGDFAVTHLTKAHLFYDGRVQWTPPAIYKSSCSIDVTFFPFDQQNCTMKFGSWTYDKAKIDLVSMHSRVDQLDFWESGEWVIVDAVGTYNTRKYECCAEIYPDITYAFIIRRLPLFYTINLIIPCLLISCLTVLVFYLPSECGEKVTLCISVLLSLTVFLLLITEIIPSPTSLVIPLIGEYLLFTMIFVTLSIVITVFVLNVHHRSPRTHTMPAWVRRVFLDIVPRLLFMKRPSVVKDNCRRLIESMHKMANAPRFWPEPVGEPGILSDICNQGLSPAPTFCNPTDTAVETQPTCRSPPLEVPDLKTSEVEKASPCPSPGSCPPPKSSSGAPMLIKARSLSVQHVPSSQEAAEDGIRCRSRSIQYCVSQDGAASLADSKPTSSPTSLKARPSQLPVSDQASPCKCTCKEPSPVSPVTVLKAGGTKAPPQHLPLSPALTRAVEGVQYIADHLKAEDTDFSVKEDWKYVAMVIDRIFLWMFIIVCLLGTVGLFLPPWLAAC
Neuronal acetylcholine receptor; alpha4/beta2 (Rattus norvegicus, UniProt P09483+P12390), sequence (P12390 whole entry): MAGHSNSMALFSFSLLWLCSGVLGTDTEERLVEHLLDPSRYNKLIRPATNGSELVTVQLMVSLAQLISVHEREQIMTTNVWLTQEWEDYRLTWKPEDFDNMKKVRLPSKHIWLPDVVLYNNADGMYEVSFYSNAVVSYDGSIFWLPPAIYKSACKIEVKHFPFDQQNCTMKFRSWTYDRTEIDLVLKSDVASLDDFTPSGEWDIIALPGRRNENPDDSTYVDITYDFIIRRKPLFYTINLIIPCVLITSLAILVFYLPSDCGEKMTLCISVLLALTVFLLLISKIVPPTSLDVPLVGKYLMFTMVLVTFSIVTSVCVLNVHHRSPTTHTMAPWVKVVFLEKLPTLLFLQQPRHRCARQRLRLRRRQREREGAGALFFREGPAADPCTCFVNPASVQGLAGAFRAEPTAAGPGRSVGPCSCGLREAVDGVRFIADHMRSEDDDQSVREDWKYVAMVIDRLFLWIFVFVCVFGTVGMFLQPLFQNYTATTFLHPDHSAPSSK
Acetylcholinesterase, sequence (O42275 whole entry): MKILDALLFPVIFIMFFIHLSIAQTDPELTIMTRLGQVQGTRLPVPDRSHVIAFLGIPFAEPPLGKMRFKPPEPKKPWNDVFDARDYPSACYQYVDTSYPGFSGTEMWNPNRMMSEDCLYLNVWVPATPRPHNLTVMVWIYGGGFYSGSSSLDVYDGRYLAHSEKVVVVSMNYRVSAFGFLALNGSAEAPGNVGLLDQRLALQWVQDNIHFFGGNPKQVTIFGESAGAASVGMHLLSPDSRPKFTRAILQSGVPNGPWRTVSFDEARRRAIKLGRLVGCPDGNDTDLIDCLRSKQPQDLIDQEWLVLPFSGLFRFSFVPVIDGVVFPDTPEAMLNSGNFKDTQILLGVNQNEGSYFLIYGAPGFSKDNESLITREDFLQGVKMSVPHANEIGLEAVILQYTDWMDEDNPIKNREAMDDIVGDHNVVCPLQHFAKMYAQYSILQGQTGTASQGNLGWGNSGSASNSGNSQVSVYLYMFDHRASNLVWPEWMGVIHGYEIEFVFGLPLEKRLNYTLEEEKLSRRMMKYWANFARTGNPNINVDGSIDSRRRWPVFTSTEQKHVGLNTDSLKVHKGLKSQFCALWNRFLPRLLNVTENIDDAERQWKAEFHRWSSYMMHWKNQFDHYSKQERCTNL

In turn, `C=CC1C2C=C(CO)CC1(N)c1ccc(=O)[nH]c1C2` (configuration not stated) showed an IC50 in series [1] of 23900 nM. In other words, the double-digit micromolar range.

Turning to `CN1CC=CC[C@H]1c1cccnc1`, in [2], the Ratio was 6. Moreover, the Ratio EC50 in series [3] came out at 8. The Imax in series [4] came to 26%. The same compound yielded an EC50 in series [5] of 6200 nM.

Regarding `Clc1ccc(C2CC3CCC2N3)cn1` (stereo in doubt; (+)), the inhibition in [6] was 98%; in [7], 70%. In addition, the ED50 in [8] was 1600 nM; in series [9], 19 nM; in series [10] it was 17 nM; in series [13], 1100 nM. In addition, the Kapp amounted to 1.6 µM in series [11] and 6.9 µM in series [12].

Regarding `CC[C@@H](C)C[C@@H](C)/C=C(C)/C=C/C=C/C(=O)c1c(O)c(C2(O)CCC(O)CC2)cn(O)c1=O` (some centres not stated), the Activity was 30% in series [14], 70% in series [15] and 80% in series [16].

With `O=c1c(O)ccc2n1CC1CNC2C1` (configuration not stated), the Ki stood at 260000 nM in [17] and 14000 nM in [18].

For the compound `c1cncc([C@@H]2CCCCN2)c1` [ANABASINE], the LD50 in series [19] was 16 mg/kg. The Ki in [20] is 390 nM. The compound also gave an EC50 in series [21] of 18000 nM.

Turning to `C[C@@H]1CC2C3Cn4c(cccc4=O)C(CN2C)C31` (some centres not stated), in series [22], the Ratio Ki is 5. Also, the Ratio IC50 in series [23] came out at 5. For the same compound, the Ki in series [24] was 0.32 nM. For the same compound, in series [25], half-maximal inhibition (IC50) was put at 0.96 nM.

With `COC(=O)c1cncc2c1C[C@H](O)[C@@H]2C`, the inhibition in series [26] turned out to be 45%; in series [27] it was 90%.

For the origin of these results see ChEMBL document CHEMBL4673260, “Pyridine alkaloids with activity in the central nervous system” (Bioorg Med Chem, 2020).
